The target of the test is RIPK1 (recombinant GST-RIPK1 kinase domain, residues 1-327) (Homo sapiens (Human), UniProt Q13546). Briefly: RIPK1-ADP-Glo Enzymatic Assay. Type of test: biochemical. To be noted: 25 nM GST-RIPK1, 300 μM ATP, 3 μM dephosphorylated-MBP; 30 minutes pre-incubation, 150 minutes reaction; ten-point titration. Put shortly: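 GST-tagged RIPK1 (25 nM) was preincubated 30 min with compound at ambient temperature in HEPES pH 7.3 buffer, then run 150 min with 300 μM ATP and 3 μM dephosphorylated MBP. ADP was read by ADP-Glo luminescence. EC50 came from 10-point, 1:3 titrations (top 100000 nM, 1% DMSO) fitted to a four-parameter model.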
RIPK1 (recombinant GST-RIPK1 kinase domain, residues 1-327), sequence (Q13546 1-327): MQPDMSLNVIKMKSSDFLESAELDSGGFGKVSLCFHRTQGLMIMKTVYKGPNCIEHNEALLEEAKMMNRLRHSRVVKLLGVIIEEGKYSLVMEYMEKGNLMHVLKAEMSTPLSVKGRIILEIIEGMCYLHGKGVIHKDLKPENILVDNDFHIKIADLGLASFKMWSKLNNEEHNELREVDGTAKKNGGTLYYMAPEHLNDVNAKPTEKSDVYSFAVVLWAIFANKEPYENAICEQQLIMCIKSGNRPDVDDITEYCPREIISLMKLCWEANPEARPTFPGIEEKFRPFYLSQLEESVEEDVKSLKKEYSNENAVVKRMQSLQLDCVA
For the molecule `O=C(N1C[C@@H]2C[C@H]1c1ccccc1O2)C12CCC(C(F)(F)F)(CC1)CC2` [Compound 1-53, [(2S,5S)-2,3-dihydro-2,5-methano-1,4-benzoxazepin-4(5H)-yl][4-(trifluoromethyl)bicyclo [2.2.2]octan-1-yl]methanone], the IC50 – broadly, the midpoint of a concentration-inhibition curve – was 510 nM.

Take `O=C(N1C[C@@H]2C[C@H]1c1ccccc1O2)C12CCC(F)(CC1)C2` [Compound 1-40, ((2S,5S)-2,3-dihydro-2,5-methanobenzo[f][1,4]oxaze-pin-4(5H)-yl)(4-fluorobicyclo[2.2.1]heptan-1-yl)methanone]: the IC50 was determined as 23 nM.

Consider `O=C(N1C[C@@H]2C[C@H]1c1ccccc1O2)C12CCCC(C1)C2` [Compound 1-10, bicyclo[3.1.1]heptan-1-yl((2S,5S)-2,3-dihydro-2,5-methanobenzo[f][1,4]oxaze-pin-4(5H)-yl)methanone], for which the IC50 is 138 nM.

As for `CC(C)(COC(F)(F)F)C(=O)N1C[C@@H]2C[C@H]1c1ccccc1O2` [Compound 1-7, 1-((2S,5S)-2,3-dihydro-2,5-methanobenzo[f][1,4]oxaze-pin-4(5H)-yl)-2,2-dimethyl-3-(trifluoromethoxy)propan-1-one], the IC50 worked out at 217 nM.

Consider `CC1(C)C(C(=O)N2C[C@@H]3C[C@H]2c2ccccc2O3)C1(C)C` [Compound 1-15, [(2S,5S)-2,3-dihydro-2,5-methano-1,4-benzoxazepin-4(5H)-yl](2,2,3,3-tetramethylcyclopropyl) methanone], for which the IC50 is 981 nM.

Consider `O=C(N1C[C@@H]2C[C@H]1c1ccccc1O2)C1(F)CCCCC1` [Compound 1-9, ((2S,5S)-2,3-dihydro-2,5-methanobenzo[f][1,4]oxaze-pin-4(5H)-yl)(1-fluorocyclohexyl)methanone], for which the IC50 was found to be 381 nM.

For the molecule `N#Cc1ccnc(N2CCC(F)(C(=O)N3C[C@@H]4C[C@H]3c3cc(F)cc(F)c3O4)CC2)n1` [Compound 2-34, 2-(4-((2S,5S)-7,9-difluoro-2,3,4,5-tetrahydro-2,5-methanobenzo[f][1,4]oxaze-pine-4-carbonyl)-4-fluoropiperidin-1-yl)pyrimidine-4-carbonitrile], the concentration for half-maximal inhibition (IC50) came out at 27 nM.

For `O=C(N1C[C@@H]2C[C@H]1c1cc(F)ccc1O2)C12CCC(CC1)C2` [Compound 2-14, (bicyclo[2.2.1]heptan-1-yl)[(2S,5S)-7-fluoro-2,3-dihydro-2,5-methano-1,4-benzoxazepin-4(5H)-yl]methanone], the IC50 came to 15 nM.

For `CC(C)(C)C(=O)N1C[C@]2(C)C[C@H]1c1ccccc1O2` [Compound 3-5, 2,2-dimethyl-1-((2S,5S)-2-methyl-2,3-dihydro-2,5-methanobenzo[f][1,4]oxaze-pin-4(5H)-yl)propan-1-one], the 50% inhibitory concentration (IC50) came out at 17800 nM.

Take `CC1(C(=O)N2C[C@@H]3C[C@H]2c2ccccc2O3)CCN(c2cc(C#N)ncn2)CC1` [Compound 1-48, 6-{4-[(2S,5S)-2,3-dihydro-2,5-methano-1,4-benzoxazepine-4(5H)-carbonyl]-4-methylpiperidin-1-yl}pyrimidine-4-carbonitrile]: the IC50 amounted to 375 nM.

Turning to `O=C(C1CCN(c2nccn3ncnc23)CC1)N1C[C@@H]2C[C@H]1c1ccccc1O2` [Compound 1-39, [(2S,5S)-2,3-dihydro-2,5-methano-1,4-benzoxazepin-4(5H)-yl][1-([1,2,4]triazolo[1,5-a]pyrazin-8-yl)piperidin-4-yl]methanone], the IC50 was determined as 213 nM.

With `CC(C)(C)C(=O)N1C[C@@H]2C[C@H]1c1cccc(F)c1O2` [Compound 2-6, 1-[(2S,5S)-9-fluoro-2,3-dihydro-2,5-methano-1,4-benzoxazepin-4(5H)-yl]-2,2-dimethylpropan-1-one], the IC50 came out at 43 nM.

`CC(F)(F)C(C)(C)C(=O)N1C[C@@H]2C[C@H]1c1ccccc1O2` [Compound 1-17, 1-[(2S,5S)-2,3-dihydro-2,5-methano-1,4-benzoxazepin-4(5H)-yl]-3,3-difluoro-2,2-dimethylbutan-1-one]: the IC50 came out at 47 nM.

For `N#Cc1cc(F)cc2c1O[C@H]1C[C@@H]2N(C(=O)C23CCC(F)(CC2)C3)C1` [Compound 2-25, (2S,5S)-7-fluoro-4-(4-fluorobicyclo[2.2.1]heptane-1-carbonyl)-2,3,4,5-tetrahydro-2,5-methano-1,4-benzoxazepine-9-carbonitrile], the IC50 turned out to be 10 nM.

Consider `CC(C)(C#N)C(=O)N1C[C@@H]2C[C@H]1c1ccccc1O2` [Compound 1-59, 3-[(2S,5S)-2,3-dihydro-2,5-methano-1,4-benzoxazepin-4(5H)-yl]-2,2-dimethyl-3-oxopropanenitrile], for which the IC50 stood at 159 nM.

Turning to `O=C(N1C[C@H]2Cc3ccccc3[C@@H]1C2)C12CCC(C(F)(F)F)(CC1)C2` (single isomer, unassigned) [Compound 3-4], the IC50 worked out at 267 nM.

As for `CC(C)(C)C(=O)N1C[C@@H]2C[C@H]1c1cc(F)ccc1O2` [Compound 2-5, 1-[(2S,5S)-7-fluoro-2,3-dihydro-2,5-methano-1,4-benzoxazepin-4(5H)-yl]-2,2-dimethylpropan-1-one], the 50% inhibitory concentration (IC50) came to 34 nM.

As for `CC1(C(=O)N2C[C@@H]3C[C@H]2c2cc(F)ccc2O3)CCC1` [Compound 2-9, [(2S,5S)-7-fluoro-2,3-dihydro-2,5-methano-1,4-benzoxazepin-4(5H)-yl](1-methylcyclobutyl)methanone], the IC50 turned out to be 63 nM.

In the case of `CC(C)(C)C(=O)N1C2CCC1c1ccccc1OC2` (single isomer, unassigned) [Compound 3-1, 2,2-dimethyl-1-((3S,6R or 3R,6S)-3,4,5,6-tetrahydro-2H-3,6-epiminobenzo[b]oxocin-11-yl)propan-1-one], the IC50 amounted to 281 nM.

In the case of `N#Cc1cc(N2CCC(F)(C(=O)N3C[C@@H]4C[C@H]3c3ccccc3O4)CC2)ncn1` [Compound 1-49, 6-{4-[(2S,5S)-2,3-dihydro-2,5-methano-1,4-benzoxazepine-4(5H)-carbonyl]-4-fluoropiperidin-1-yl}pyrimidine-4-carbonitrile], the IC50 was found to be 117 nM.

For the molecule `CC(C)(C(=O)N1C[C@@H]2C[C@H]1c1ccc(C#N)cc1O2)C(F)F` [Compound 2-22, (2S,5S)-4-(3,3-difluoro-2,2-dimethylpropanoyl)-2,3,4,5-tetrahydro-2,5-methano-1,4-benzoxazepine-8-carbonitrile], the half-maximal inhibitory concentration (IC50) came out at 388 nM.

Consider `CC1(C(=O)N2C[C@@H]3C[C@H]2c2cc(F)ccc2O3)CC(C#N)C1` (stereo partly drawn) [Compound 2-29, 3-((2S,5S)-7-fluoro-2,3,4,5-tetrahydro-2,5-methanobenzo[f][1,4]oxaze-pine-4-carbonyl)-3-methylcyclobutane-1-carbonitrile], for which the half-inhibitory concentration (IC50) came to 55 nM.

The values above are taken from US20240208986A1, “PHENYL AZEPINES AS RIPK1 INHIBITORS AND METHODS OF USE THEREOF” (Merck Sharp & Dohme LLC, priority 2021, published 2024).
